From PMC10041521, “Fluorescent Activity-Based Probe To Image and Inhibit Factor XIa Activity in Human Plasma” (Journal of Medicinal Chemistry, 2023)
“And” between values parts separate entries of the source, which are not always exact repeats. Equal entries are not always repeated. Each block holds one substance with its values, some of them ahead of it. [ ]: non-standard residue; d: D form. The star is where a group is joined. ACC = NC(=O)Cc1cc(=O)oc2cc(N*)ccc12; Nle = CCCC[C@H](N)C(=O)O; OBn = c1ccc(CO*)cc1; Bn = c1ccc(C*)cc1

What was measured:
Format in all cases: biochemical
[1] = target: T1, fXIa (Homo sapiens, UniProt P03951); assay: Screening of individual substrates (hydrolysis rate, RFU/s); parameters: complete conversion of the single chain zymogen to the two-chain active form; made in house; host or cells: HEK293 cells expressing EBNA (pCEP4 vector); conditions: substrate 1 μM, 5 nM fXIa, RFU/s over 30 min, 37 °C
Protocol: (§1) All kinetic assays were performed using a spectrofluorometer (Molecular Devices SpectraMax Gemini XPS) on 96-well, white, flat bottom, nontreated plates (Corning). The parameters were as follows: excitation/emission wavelength, 355/460 nm (cutoff, 455 nm); varying concentrations of substrates, ABPs, inhibitor, and enzymes. The assay buffer (20 mM Tris-base, 150 mM NaCl, 5 mM CaCl2, pH 7.4) was prepared at room temperature, and the enzyme kinetic studies were performed at 37 °C. All enzymes were preincubated in assay buffer for 15 min at 37 °C before addition to the wells. Each assay was repeated at least twice, and the data represent the average of these repetitions. The obtained results were analyzed using SoftMax (Molecular Devices), GraphPad Prism, and Microsoft Excel software.
All potentially selective fXIa substrates were tested for their selectivity against four coagulation factors, APC, thrombin, fXa, and fXIa at a concentration of 1 μM. The assay conditions were as follows: 1 μL of each substrate was placed in separate wells on the plate followed by the addition of 99 μL of preincubated enzyme (15 min, 37 °C) in assay buffer. To obtain reliable results and a robust fluorescence signal, the final enzyme concentration was 120 nM for APC, 20 nM for thrombin, 70 nM for fXa, and 5 nM for fXIa. Substrate hydrolysis was measured for 30 min (λex = 355 nm, λem = 460 nm), and the linear part of each progress curve was used to determine the substrate hydrolysis rate (RFU/s). The obtained RFU/s were then adjusted to represent the value corresponding to the same enzyme activity.

[2] = target: T1, fXIa; assay: Kinetic parameters (kcat/KM) of ACC-labeled substrates; parameters: complete conversion of the single chain zymogen to the two-chain active form; made in house; host or cells: HEK293 cells expressing EBNA (pCEP4 vector); conditions: for kcat/KM fXIa: Michaelis-Menten, 5 nM fXIa, 20 mM Tris, 150 mM NaCl, 5 mM CaCl2, pH 7.4, 37 °C, ACC release 30 min, mean ± s.d., n = 3
Protocol: as §1
(§2) The kinetic parameters (kcat, KM, and kcat/KM) of selected ACC-labeled substrates were determined using Michaelis–Menten nonlinear regression according to the protocol described by Poreba et al.[62] Each substrate was serially diluted until the eighth well to obtain substrate concentrations ranging from 1.16 nM to 111 μM depending on the substrate used. Next, each enzyme was preincubated (15 min, 37 °C) in assay buffer to a final enzyme concentration of 425 nM for APC, 70 nM for thrombin, 200 nM for fXa, and 5 nM for fXIa and was added to the wells containing eight different substrate concentrations. The release of ACC was measured for 30 min (λex = 355 nm, λem = 460 nm). The linear part of each progression curve was used to calculate the kinetic parameters using GraphPad Prism and Microsoft Excel software.

[3] = target: T2, APC (Homo sapiens, UniProt P04070); assay: as above; conditions: Michaelis-Menten, 425 nM APC, assay buffer pH 7.4, 37 °C, ACC release 30 min; mean ± s.d., n = 3
T2 construct: from tissue; host or cells: fresh frozen plasma
Protocol: (§3) Protein C, factor X, and prothrombin were purified from fresh frozen plasma and then activated as previously described.[33]
as §1, §2

[4] = target: T1, fXIa; assay: Labeling of purified coagulation factors with ABPs, SDS-PAGE and blot; parameters: complete conversion of the single chain zymogen to the two-chain active form; made in house; host or cells: HEK293 cells expressing EBNA (pCEP4 vector); conditions: APC, thrombin, fXa, fXIa 200 nM each, separately, probe/enzyme 1:1, 30 min, 37 °C; for labeling of purified coagulation factors by biotinylated ABP (western blot): streptavidin Alexa Fluor 647, 658 nm
Protocol: To determine biotin-labeled ABPs selectivity, four purified coagulation factors (APC, thrombin, fXa, and fXIa) with a constant concentration of 200 nM were incubated separately with each probe (the probe/enzyme ratio was 1) in assay buffer for 30 min at 37 °C. Each enzyme was incubated with each probe in a volume of 40 μL followed by reduction with 20 μL of 3 × SDS/DTT for 5 min at 95 °C. The first well was loaded with 0.5 μL of the protein marker PageRuler Prestained Protein Ladder (Thermo Scientific), and then 10 μL of each sample was run on a 12% (w/v) 15-well gel. SDS–PAGE separation was performed at 200 V for 39 min followed by a wet tank transfer to a nitrocellulose membrane (0.2 μm, Bio-Rad) at 10 V for 60 min. The membrane was blocked with 2.5% BSA in TBS-T (Tris-buffered saline with 0.1% (v/v) Tween 20) for 60 min at room temperature. Next, the membrane was incubated with fluorescent streptavidin Alexa Fluor 647 conjugate (dilution 1:10,000 in TBS-T with 1% BSA) for 60 min. The biotin-labeled ABPs were detected at 658 nm using an Azure Biosystems Sapphire Biomolecular Imager and Azure Spot Analysis software.
For fluorescently labeled probe sample preparation, electrophoresis and membrane transfer were performed as described above. When testing the inhibitor utility, 200 nM fXIa was incubated with inhibitor (final inhibitor concentration 5 μM) for 60 min prior to probe addition. After the membrane was blocked with 2.5% BSA in TBS-T (60 min), the labeled proteins were directly imaged with a […] laser using an Azure Biosystems Sapphire Biomolecular Imager and Azure Spot Analysis software.

[5] = target: T1, fXIa; assay: P1 substrate specificity, defined library Ac-Ala-Arg-Leu-P1-ACC; parameters: complete conversion of the single chain zymogen to the two-chain active form; made in house; host or cells: HEK293 cells expressing EBNA (pCEP4 vector); conditions: individual substrates Ac-Ala-Arg-Leu-P1-ACC, 100 μM, 8 nM fXIa, RFU/s, best residue = 100%, n = 2
Protocol: as §1
To determine fXIa preferences at the P1 position, we used the Ac-Ala-Arg-Leu-P1-ACC library of 133 individual fluorogenic substrates.[34] The assay conditions were as follows: 0.5 μL of each library substrate was placed in one well, and 99.5 μL of preincubated enzyme (15 min, 37 °C) was added. The final library concentration was 100 μM, and the enzyme concentration was 8 nM. The release of ACC was measured for 30 min (λex = 355 nm, λem = 460 nm), but only the linear portion of each progress curve was used to determine the substrate hydrolysis rate (RFU/s, relative fluorescence unit per second). […]

[6] = target: T3, thrombin (Homo sapiens, UniProt P00734); assay: Kinetic parameters (kcat/KM) of ACC-labeled substrates; conditions: Michaelis-Menten, 70 nM thrombin, assay buffer pH 7.4, 37 °C, ACC release 30 min; mean ± s.d., n = 3
T3 construct: from tissue; host or cells: fresh frozen plasma
Protocol: as §3, §1, §2

[7] = target: T4, fXa (Homo sapiens, UniProt P00742); assay: as above; conditions: Michaelis-Menten, 200 nM fXa, assay buffer pH 7.4, 37 °C, ACC release 30 min; mean ± s.d., n = 3
T4 construct: from tissue; host or cells: fresh frozen plasma
Protocol: as §3, §1, §2

[8] = target: T1, fXIa; assay: Detection of fXIa in human plasma with fluorescent ABP; conditions: EDTA plasma, 60 min, 37 °C
Protocol: Human plasma (collected in tubes containing anticoagulant EDTA) was isolated from whole blood as described elsewhere[33] and incubated with a fluorescently labeled probe at probe concentrations ranging from 1 to 20 μM. Incubation was carried out in assay buffer for 60 min at 37 °C. Plasma was incubated with the probe in a total volume of 40 μL (20 μL of plasma and 20 μL of probe) followed by reduction with 20 μL of 3 × SDS/DTT for 5 min at 95 °C. The first well was loaded with 0.5 μL of the protein marker PageRuler Prestained Protein Ladder (Thermo Scientific), and then 5 μL of each sample was run on a 12% (w/v) 15-well gel. SDS–PAGE separation was performed at 200 V for 39 min followed by transfer to a nitrocellulose membrane (0.2 μm, Bio-Rad) at 10 V for 60 min. The membrane was blocked with 2.5% BSA in TBS-T for 60 min at room temperature. Next, the membrane was treated with sheep antihuman polyclonal fXI antibody (Haematologic Technologies Inc., PAHFXI-S, 1:1000) for 7 h followed by incubation with Alexa Fluor 680 donkey antisheep secondary antibody (Life Technologies, A21102, 2:10,000) for 1 h (both at room temperature). The membrane was then scanned using an Azure Biosystems Sapphire Biomolecular Imager and Azure Spot Analysis software for fXIa at 488 nm (for BODIPY detection) and 658 nm (for antibody detection).

T1 sequence (P03951 388-625 limits assumed): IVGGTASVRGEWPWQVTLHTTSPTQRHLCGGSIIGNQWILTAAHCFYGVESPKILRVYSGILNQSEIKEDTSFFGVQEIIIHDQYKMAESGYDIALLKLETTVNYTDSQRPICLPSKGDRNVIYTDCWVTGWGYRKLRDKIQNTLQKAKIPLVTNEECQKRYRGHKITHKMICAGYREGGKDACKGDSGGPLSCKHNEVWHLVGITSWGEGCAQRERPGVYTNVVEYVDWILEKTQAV
T1 sequence (P03951 19-387 partner limits assumed): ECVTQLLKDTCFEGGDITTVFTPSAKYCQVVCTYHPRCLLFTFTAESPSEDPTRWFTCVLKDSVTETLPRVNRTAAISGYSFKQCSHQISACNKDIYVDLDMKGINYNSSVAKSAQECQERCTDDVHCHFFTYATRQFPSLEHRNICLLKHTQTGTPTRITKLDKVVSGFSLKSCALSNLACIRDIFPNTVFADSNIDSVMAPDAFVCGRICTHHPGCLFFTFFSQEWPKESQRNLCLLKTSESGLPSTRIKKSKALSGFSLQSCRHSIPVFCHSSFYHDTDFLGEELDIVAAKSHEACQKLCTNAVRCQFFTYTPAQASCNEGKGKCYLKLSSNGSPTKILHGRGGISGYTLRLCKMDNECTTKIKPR
T2 sequence (P04070 212-461 limits assumed): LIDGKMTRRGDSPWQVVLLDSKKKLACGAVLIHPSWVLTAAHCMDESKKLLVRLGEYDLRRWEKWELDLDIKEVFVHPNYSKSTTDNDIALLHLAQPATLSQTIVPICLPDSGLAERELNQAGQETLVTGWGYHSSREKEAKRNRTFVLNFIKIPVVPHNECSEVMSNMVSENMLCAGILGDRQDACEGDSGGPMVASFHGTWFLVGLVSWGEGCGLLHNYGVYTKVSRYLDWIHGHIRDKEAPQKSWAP
T2 sequence (P04070 43-197 partner limits assumed): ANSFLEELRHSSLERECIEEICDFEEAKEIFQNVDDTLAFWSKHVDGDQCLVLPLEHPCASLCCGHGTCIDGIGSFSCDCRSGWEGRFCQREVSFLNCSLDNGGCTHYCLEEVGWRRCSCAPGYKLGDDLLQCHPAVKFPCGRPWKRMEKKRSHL
T4 sequence (P00742 235-488 limits assumed): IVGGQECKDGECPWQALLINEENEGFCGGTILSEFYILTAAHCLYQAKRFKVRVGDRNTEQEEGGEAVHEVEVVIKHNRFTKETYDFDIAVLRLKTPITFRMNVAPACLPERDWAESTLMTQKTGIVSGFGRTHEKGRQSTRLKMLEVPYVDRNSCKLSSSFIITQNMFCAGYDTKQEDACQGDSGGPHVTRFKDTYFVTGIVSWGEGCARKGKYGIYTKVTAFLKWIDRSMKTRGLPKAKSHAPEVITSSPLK
T4 sequence (P00742 41-179 partner limits assumed): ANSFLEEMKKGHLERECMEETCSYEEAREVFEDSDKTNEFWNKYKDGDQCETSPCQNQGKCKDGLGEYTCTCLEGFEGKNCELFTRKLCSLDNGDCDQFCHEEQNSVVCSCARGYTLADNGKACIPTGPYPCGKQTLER

Substance: Ac-Y(Bn)[Nle]E(OBn)R-{ACC} (SMILES CCCC[C@H](NC(=O)[C@H](Cc1ccc(OCc2ccccc2)cc1)NC(C)=O)C(=O)N[C@@H](CCC(=O)OCc1ccccc1)C(=O)N[C@@H](CCCNC(=N)N)C(=O)Nc1ccc2c(CC(N)=O)cc(=O)oc2c1) [SMXI13]
activity on fXIa relative to SMXI5 ([1]; more active than SMXI5): fourfold

Substance: Ac-Tyr(2,6-Cl2-Z)-2-Aoc-Nle(O-Bzl)-Arg-ACC [SMXI22]
decrease in activity relative to SMXI3 (P2 L-His(Bzl)) [1]: 2.6 fold

Substance: Ac-Tyr(2,6-Cl2-Z)-Dht-His(Bzl)-Arg-ACC [SMXI19]
kcat/KM fXIa [2]: 247,000 ± 5,000 M^-1 s^-1 and 247,000 ± 5000 M^-1 s^-1
fold better hydrolyzed by fXIa than by fXa (kcat/KM ratio) ([2]; fXIa over fXa): 80 fold
fold better hydrolyzed by fXIa than by thrombin (kcat/KM ratio) ([2]; fXIa over thrombin): 28 fold
kcat/KM APC [3]: 91 ± 3 M⁻¹ s⁻¹

Substance: Ac-Tyr(2,6-Cl2-Z)-2-Aoc-hSer(Bzl)-Arg-ACC [SMXI23]
decrease in activity relative to SMXI3 (P2 L-His(Bzl)) [1]: 5.5 fold

Substance: biotin-PEG(4)-Tyr(2,6-Cl2-Z)-Nle-Glu(Bzl)-ArgP(OPh)2 [P-SMXI51]
labeling of purified coagulation factors by biotinylated ABP (western blot) [4]: only one signal from a protein between 35 and 40 kDa, corresponding to a fXIa monomer

relative activity at the P1 position [5]: 100%
Substance: L-Arg

Substance: biotin-PEG(4)-Tyr(2,6-Cl2-Z)-Dht-His(Bzl)-ArgP(OPh)2 [P-SMXI191]
labeling of purified coagulation factors by biotinylated ABP (western blot) [4]: only one signal from a protein between 35 and 40 kDa, corresponding to a fXIa monomer

Substance: Ac-Tyr(2,6-Cl2-Z)-2-Aoc-Glu(Bzl)-Arg-ACC [SMXI7]
decrease in activity relative to SMXI3 (P2 L-His(Bzl)) [1]: 1.5 fold

Substance: Ac-Tyr(2,6-Cl2-Z)-Nle-Glu(Bzl)-Arg-ACC [SMXI5]
kcat/KM fXIa [2]: 99,000 ± 7,000 M^-1 s^-1
kcat/KM thrombin [6]: 11,000 ± 300 M^-1 s^-1
kcat/KM fXa [7]: 4,500 ± 300 M^-1 s^-1

Substance: BODIPY-PEG(4)-Tyr(2,6-Cl2-Z)-Nle-Glu(Bzl)-ArgP(OPh)2 [P-SMXI52]
probe concentration from which a clear fXIa band is observed in human plasma ([8]; probe 1-20 μM, SDS-PAGE, 488 nm, costaining with antifXI antibody): ≥ 2 µM
selectivity of labeling in human plasma ([8]; probe up to 20 μM): remained selective even at a high probe concentration (20 μM)
labeling of purified coagulation factors by fluorescent ABP (blot, 488 nm) [4]: only one fluorescent band generated by fXIa labeling and no off-target signals
